The source of these data is ChEMBL document CHEMBL1201862, “PubChem BioAssay data set” (2004).

Test systems include ACHN; EKVX; HCT-15; HL-60; HOP-62; K562; MDA-N; NCI-H226; NCI-H23; NCI/ADR-RES; OVCAR-4; OVCAR-8; SF-268; SF-539; SK-MEL-5; SNB-19; SW-620; T47D; UACC-62; BT-549.
Test in all cases: NCI anticancer screen, dose series, 48 h

Structures are written as SMILES.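 48-hour exposure; five concentrations; linearly interpolated endpoints. GI50 = concentration required for 50% inhibition of growth.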 Calls of active or inactive are those of the source. Rule as the data show it: active = GI50 up to about 1.1 µM and inactive = higher. A value given as a limit tells only on which side of the number the result lay.

`C(=C\C(SCc1ccccc1)SCc1ccccc1)/c1ccccc1`: the GI50 with ACHN is > 10 µM (inactive); in the assay on EKVX, > 10 µM (inactive); in the assay with HCT-15, > 10 µM; in the assay with HL-60, > 10 µM (inactive); with HOP-62, > 10 µM (inactive); with K562, > 10 µM (inactive). Moreover, the GI50 in the assay on MDA-N, in the assay on NCI-H226, in the assay on NCI-H23, in the assay with NCI/ADR-RES, in the assay on OVCAR-4 and with OVCAR-8 was > 10 µM (inactive) throughout. The GI50 with SF-268, in the assay with SF-539, with SK-MEL-5, in the assay on SNB-19, in the assay with SW-620 and in the assay with T47D was > 10 µM (inactive) throughout. Besides, the GI50 in the assay on UACC-62 was > 10 µM (inactive).

Turning to `O=C(CC1(O)C(=O)Nc2c(Cl)cc(Cl)cc21)c1ccc(Br)cc1Br` (stereo unspecified), the GI50 in the assay with ACHN was 14.1 µM (inactive); in the assay with BT-549, 10.5 µM (inactive); in the assay with EKVX it was 19 µM (inactive); in the assay on HCT-15 it was 8.57 µM; with HL-60, 1.04 µM (active); in the assay on HOP-62 it was 20.8 µM (inactive). The GI50 in the assay with K562 was 0.946 µM (active); in the assay with MDA-N, 7.57 µM (inactive); in the assay with NCI-H226, 19 µM (inactive); in the assay on NCI-H23 it was 8.26 µM (inactive); in the assay on OVCAR-4, 12.2 µM (inactive); in the assay on OVCAR-8, 7.98 µM (inactive). The GI50 is 8.17 µM (inactive) in the assay on SF-268; 14.6 µM (inactive) in the assay on SF-539; 7.4 µM (inactive) in the assay with SK-MEL-5; 17.2 µM (inactive) in the assay with SNB-19; 3.3 µM (inactive) in the assay on SW-620; 12.9 µM (inactive) in the assay with UACC-62.

Take `COc1cc(OC2OC(CO)C(O)C(O)C2O)c2c(c1)O[C@@H]1[C@H](O)Oc3cc(OC)c(OC)cc3[C@]1(O)C2=O` (stereo partly specified): the GI50 was > 25 µM (inactive) in the assay on ACHN; > 25 µM (inactive) in the assay on EKVX; > 25 µM in the assay on HCT-15; > 25 µM (inactive) in the assay on HL-60; > 25 µM (inactive) in the assay on HOP-62; > 25 µM (inactive) in the assay with K562. Also, the GI50 with MDA-N, with NCI-H226, in the assay on NCI-H23, with NCI/ADR-RES, in the assay on OVCAR-4 and in the assay with OVCAR-8 was > 25 µM (inactive) throughout. Further, the GI50 in the assay on SF-268, in the assay on SF-539, with SK-MEL-5, with SNB-19, in the assay with SW-620 and in the assay with T47D was > 25 µM (inactive) throughout. Moreover, the GI50 in the assay on UACC-62 is > 25 µM (inactive).

As to `Cc1cs/c(=N/c2ccccc2)n1CCC(O)(P(=O)(O)O)P(=O)(O)O`, the GI50 with ACHN is 67.3 µM (inactive); in the assay with BT-549, > 100 µM (inactive); with EKVX, > 100 µM (inactive); in the assay on HCT-15 it was 63.1 µM; in the assay with HOP-62 it was > 100 µM (inactive); in the assay on MDA-N, > 100 µM (inactive). Moreover, the GI50 in the assay with NCI-H226, in the assay with NCI-H23, in the assay on NCI/ADR-RES, with OVCAR-8, in the assay with SF-268 and in the assay on SF-539 was > 100 µM (inactive) throughout. Besides, the GI50 in the assay with SK-MEL-5 was 71.6 µM (inactive); in the assay on SNB-19, > 100 µM (inactive); in the assay on UACC-62 it was > 100 µM (inactive).

In the case of `c1ccc(-c2csc3c2-n2cccc2C3N2CCCC2)cc1` (stereo unspecified), the GI50 in the assay on ACHN is > 100 µM (inactive); in the assay on BT-549, 3.3 µM (inactive); with EKVX it was 13.8 µM (inactive); in the assay on HCT-15 it was 93.8 µM; in the assay on HL-60, 23.5 µM (inactive); in the assay on HOP-62, 26.5 µM (inactive). Moreover, the GI50 was 22.6 µM (inactive) with K562; 34.4 µM (inactive) in the assay with MDA-N; 85.1 µM (inactive) in the assay with NCI-H226; 20.9 µM (inactive) in the assay on NCI-H23; > 100 µM (inactive) in the assay on NCI/ADR-RES; 34.4 µM (inactive) in the assay on OVCAR-4. The GI50 was 26.8 µM (inactive) with OVCAR-8; 13.9 µM (inactive) with SF-268; 36.4 µM (inactive) in the assay with SF-539; 4.84 µM (inactive) in the assay with SK-MEL-5; 19.6 µM (inactive) with SNB-19; 44.2 µM (inactive) with SW-620.

Consider `CCOC(=O)Nc1cc2c(c(N)n1)N=C(c1ccccc1)[C@H](C)N2` [MIVOBULIN ISETHIONATE], for which the GI50 in the assay on ACHN was < 0.0001 µM (active); in the assay on BT-549 it was 0.01 µM (active); in the assay on EKVX, 0.0653 µM (active); in the assay with HCT-15, 0.0324 µM; in the assay on HL-60, < 0.0001 µM (active); with HOP-62, 0.0562 µM (active). Besides, the GI50 in the assay with K562 is < 0.0001 µM (active); in the assay on MDA-N it was < 0.0001 µM (active); with NCI-H226 it was 0.00215 µM (active); in the assay with NCI-H23 it was 0.00161 µM (active); in the assay with NCI/ADR-RES it was < 0.0001 µM (active); in the assay with OVCAR-4, 0.00363 µM (active). Further, the GI50 in the assay on OVCAR-8, with SF-268, in the assay with SK-MEL-5, in the assay on SNB-19, in the assay on SW-620 and with UACC-62 was < 0.0001 µM (active) throughout.

Turning to `O=S1(=O)OCCOS(=O)(=O)C1S(=O)(=O)c1ccc2ccccc2c1`, the GI50 in the assay with ACHN is > 100 µM (inactive); in the assay on BT-549 it was > 100 µM (inactive); with EKVX it was > 100 µM (inactive); in the assay on HCT-15, > 100 µM; with HL-60 it was > 100 µM (inactive); in the assay with HOP-62 it was > 100 µM (inactive). Besides, the GI50 in the assay with K562, in the assay on MDA-N, in the assay with NCI-H23, in the assay with NCI/ADR-RES, with OVCAR-4 and with OVCAR-8 was > 100 µM (inactive) throughout. For the same compound, the GI50 in the assay on SK-MEL-5, with SNB-19 and in the assay with SW-620 was > 100 µM (inactive) throughout.

For `CC(C)/C(Cl)=N\OC(NC(=O)P(=O)(c1ccccc1)c1ccccc1)(C(F)(F)F)C(F)(F)F`, the GI50 in the assay on ACHN was 3.62 µM (inactive); in the assay on EKVX, 20 µM (inactive); with HCT-15, 15.9 µM; in the assay on HL-60, 11.5 µM (inactive); in the assay with HOP-62, 17.3 µM (inactive); with K562, 4.25 µM (inactive). For the same compound, the GI50 in the assay with MDA-N is 19.5 µM (inactive); with NCI-H226, 10.3 µM (inactive); with NCI-H23, 2.99 µM (inactive); in the assay with NCI/ADR-RES, 12.8 µM (inactive); with OVCAR-4, 5 µM (inactive); with OVCAR-8, 13 µM (inactive). For the same compound, the GI50 with SF-268 was 12.1 µM (inactive); in the assay on SF-539, 13.5 µM (inactive); with SK-MEL-5, 13.8 µM (inactive); in the assay on SNB-19, 17.9 µM (inactive); in the assay on SW-620 it was 21.7 µM (inactive); in the assay on T47D it was 10.9 µM (inactive). Besides, in the assay with UACC-62, the GI50 was 16 µM (inactive).
